According to ChEMBL document CHEMBL3272229, “Molecular properties of the adrenergic alpha receptor. 2. Optimum covalent inhibition by two different prototypes of polyamine disulfides” (J Med Chem, 1978):
Calls of active or inactive are those of the source. The calls are words filed in the database; no cut-off is given here.

Assays:
[1] = biological target: T1, Adrenergic receptor alpha (Rattus norvegicus) (UniProt P15823+P23944+P43140+P22086+P19328+P22909); experiment: Irreversible inhibition of alpha adrenergic receptor in rat vas deferens assessed as inhibition of NE-induced contractions at 2 x 10' -5 M after 30 mins relative to N1,N1'-(2,2'-disulfanediylbis(ethane-2,1-diyl))dioctane-1,8-diamine tetrahydrochloride; assay type: tissue-based
[2] = biological target: T1, Adrenergic receptor alpha (Rattus norvegicus); experiment: Irreversible inhibition of alpha adrenergic receptor in rat vas deferens assessed as inhibition of NE-induced contractions at 2 x 10' -5 M after 30 mins relative to [N,N'-bis(o-methoxybenzylamino-n-hexyl)cystamine; assay type: tissue-based
[3] = species: Cavia porcellus; experiment: Antagonist activity at alpha adrenergic receptor in guinea pig atrium assessed as inhibition of 30 uM NE-induced contractions treated at 3 uM for 30 mins followed by washout; assay type: tissue-based; conditions: Cardiac atrium
[4] = species: Oryctolagus cuniculus; experiment: Effect on histamine receptor in potassium-contracted rabbit aortic strip assessed as change in histamine-mediated response at 10 uM after 30 mins
[5] = species: Cavia porcellus; experiment: Antagonist activity at muscarinic receptor in guinea pig atrium assessed as reduction in butyrylcholine-induced response at 10 to 30 uM; assay type: tissue-based; conditions: Cardiac atrium
[6] = species: Oryctolagus cuniculus; experiment: Irreversible inhibition of alpha adrenergic receptor in rabbit aortic strip assessed as inhibition of NE-induced contractions at 1 to 3 uM after 18 hrs
[7] = species: Cavia porcellus; experiment: Potentiation of NE-mediated alpha adrenergic receptor activity in guinea pig atrium at 10 to 30 uM; assay type: tissue-based; conditions: Cardiac atrium
[8] = species: Oryctolagus cuniculus; experiment: Effect on beta adrenergic receptor in potassium-contracted rabbit aortic strip assessed as change in isoprenaline-mediated response at 10 uM after 30 mins
[9] = species: Cavia porcellus; experiment: Effect on muscarinic receptor in guinea pig atrium assessed as reduction in carbachol-mediated ionotropic/chronotropic potency at 30 uM after 26 mins; assay type: tissue-based; conditions: Cardiac atrium
[10] = species: Cavia porcellus; experiment: Effect on muscarinic receptor in guinea pig atrium assessed as reduction in carbachol-mediated ionotropic/chronotropic potency at 0.24 uM after 30 to 60 mins; assay type: tissue-based; parameters: scale not given: the % may be the effect or the level left; conditions: Cardiac atrium
[11] = species: Cavia porcellus; experiment: Effect on muscarinic acetylcholine receptor in guinea pig ileum assessed as reduction in acetylcholine-induced contractile response at 7 uM after 20 to 40 mins; assay type: tissue-based; parameters: scale not given: the % may be the effect or the level left
[12] = species: Cavia porcellus; experiment: Antagonist activity at alpha adrenergic receptor in guinea pig atrium assessed as reduction in tyramine-mediated ionotropic/chronotropic potency at 10 to 30 uM; assay type: tissue-based; conditions: Cardiac atrium
[13] = species: Oryctolagus cuniculus; experiment: Irreversible inhibition of alpha adrenergic receptor in rabbit aortic strip assessed as inhibition of NE-induced contractions at 0.3 uM after 90 mins
[14] = species: Cavia porcellus; experiment: Effect on muscarinic acetylcholine receptor in guinea pig ileum assessed as reduction in acetylcholine-induced contractile response treated at 30 uM for 40 mins measured after 20 mins post washout; assay type: tissue-based
[15] = species: Oryctolagus cuniculus; experiment: Effect on 5-HT receptor in potassium-contracted rabbit aortic strip assessed as change in 5-HT-mediated response at 10 uM after 30 mins
[16] = biological target: T1, Adrenergic receptor alpha (Rattus norvegicus); experiment: Irreversible inhibition of alpha adrenergic receptor in rat vas deferens assessed as inhibition of NE-induced contractions at <20 uM after 30 mins; assay type: tissue-based
[17] = species: Cavia porcellus; experiment: Antagonist activity at alpha adrenergic receptor in guinea pig atrium assessed as inhibition of 300 uM NE-induced contractions treated at 0.147 uM; assay type: tissue-based; conditions: Cardiac atrium
[18] = species: Cavia porcellus; experiment: Antagonist activity at alpha adrenergic receptor in guinea pig atrium assessed as reduction in tyramine-mediated ionotropic/chronotropic potency; assay type: tissue-based; conditions: Cardiac atrium
[19] = species: Cavia porcellus; experiment: Antagonist activity at muscarinic receptor in guinea pig atrium assessed as reduction in butyrylcholine-induced response; assay type: tissue-based; conditions: Cardiac atrium
[20] = species: Cavia porcellus; experiment: Potentiation of NE-mediated alpha adrenergic receptor activity in guinea pig atrium; assay type: tissue-based; conditions: Cardiac atrium
[21] = species: Cavia porcellus; experiment: Antagonist activity at alpha adrenergic receptor in guinea pig atrium assessed as inhibition of 30 uM NE-induced contractions treated at 0.147 uM; assay type: tissue-based; conditions: Cardiac atrium
[22] = species: Cavia porcellus; experiment: Effect on muscarinic receptor in guinea pig atrium assessed as reduction in carbachol-mediated ionotropic/chronotropic potency at 0.17 uM after 30 to 60 mins; assay type: tissue-based; parameters: scale not given: the % may be the effect or the level left; conditions: Cardiac atrium
[23] = species: Cavia porcellus; experiment: Effect on muscarinic receptor in guinea pig atrium assessed as reduction in carbachol-mediated ionotropic/chronotropic potency at 10 uM after 17 mins; assay type: tissue-based; conditions: Cardiac atrium

| inhibition [1] | inhibition [2] | Compound | other results |
| --- | --- | --- | --- |
| 92% | 92% | NCCCCCCCCCNCCSSCCNCCCCCCCCCN | – |
| 39% | 39% | Clc1cccc(Cl)c1CNCCCCCCCNCCSSCCNCCCCCCCNCc1c(Cl)cccc1Cl | – |
| 56% | 56% | Cc1ccccc1CNCCCCCCCNCCSSCCNCCCCCCCNCc1ccccc1C | – |
| 24% | 24% | NCCCCCCCCCCCCNCCSSCCNCCCCCCCCCCCCN | – |
| 63% | 63% | NCCCCCCCNCCSSCCNCCCCCCCN | – |
| 71% | 71% | COc1ccccc1CNCCCCCCCNCCSSCCNCCCCCCCNCc1ccccc1OC | – |
| 27% | 27% | NCCCCCCNCCSSCCNCCCCCCN | – |
| 10% | 10% | NCCCCCNCCSSCCNCCCCCN | – |
| 41% | 41% | COc1ccccc1CNCCCCCCCCNCCSSCCNCCCCCCCCNCc1ccccc1OC | – |
| 90% | 90% | CN(CCCCCCCCN)CCSSCCN(C)CCCCCCCCN | – |
| 58% | 58% | c1ccc(CNCCCCCCCNCCSSCCNCCCCCCCNCc2ccccc2)cc1 | – |
| 56% | 56% | NCCCCCCCCCCNCCSSCCNCCCCCCCCCCN | – |
| – | 100% | NCCCCCCCCNCCSSCCNCCCCCCCCN | inhibition [16]: Active |
| 36% | 36% | Clc1ccccc1CNCCCCCCCNCCSSCCNCCCCCCCNCc1ccccc1Cl | – |
| 49% | 49% | Cc1ccccc1CNCCCCCCCCNCCSSCCNCCCCCCCCNCc1ccccc1C | – |

Second part, the compound before the results:

| Compound | inhibition [1] | inhibition [2] | other results |
| --- | --- | --- | --- |
| CCOc1ccccc1CNCCCCCCNCCSSCCNCCCCCCNCc1ccccc1OCC | 81% | 81% | – |
| COc1ccccc1CNCCCCCNCCSSCCNCCCCCNCc1ccccc1OC | 59% | 59% | – |
| COc1ccc(CNCCCCCCNCCSSCCNCCCCCCNCc2ccc(OC)c(OC)c2)cc1OC | 24% | 24% | – |
| COc1ccc(OC)c(CNCCCCCCNCCSSCCNCCCCCCNCc2cc(OC)ccc2OC)c1 | 76% | 76% | – |
| Clc1ccccc1CNCCCCCCNCCSSCCNCCCCCCNCc1ccccc1Cl | 44% | 44% | – |
| Oc1ccc(CNCCCCCCNCCSSCCNCCCCCCNCc2ccc(O)c(O)c2)cc1O | 98% | 98% | – |
| Cc1ccccc1CNCCCCCCNCCSSCCNCCCCCCNCc1ccccc1C | 69% | 69% | – |
| Clc1cccc(Cl)c1CNCCCCCCNCCSSCCNCCCCCCNCc1c(Cl)cccc1Cl | 40% | 40% | – |
| COc1ccccc1CNCCCCCCNCCSSCCNCCCCCCNCc1ccccc1OC | 100% | – | inhibition [3]: inactive; Activity [4]: inactive; inhibition [5]: inactive; inhibition [6]: Active; Activity [7]: inactive; Activity [8]: inactive; Activity [9]: inactive; Activity [10]: 50%; Activity [11]: 50%; inhibition [12]: inactive; inhibition [13]: Active; Activity [14]: inactive; Activity [15]: inactive |
| COc1cccc(CNCCCCCCNCCSSCCNCCCCCCNCc2cccc(OC)c2)c1 | 72% | 72% | – |
| COc1ccc(CNCCCCCCNCCSSCCNCCCCCCNCc2ccc(OC)cc2OC)c(OC)c1 | 26% | 26% | – |
| COc1cc(CNCCCCCCNCCSSCCNCCCCCCNCc2cc(OC)cc(OC)c2)cc(OC)c1 | 41% | 41% | – |
| COc1ccccc1CNCCCCCCN(C)CCSSCCN(C)CCCCCCNCc1ccccc1OC | 48% | 48% | – |
| C=CCOc1ccccc1CNCCCCCCNCCSSCCNCCCCCCNCc1ccccc1OCC=C | 71% | 71% | – |
| COc1ccc(CNCCCCCCNCCSSCCNCCCCCCNCc2ccc(OC)cc2)cc1 | 81% | 81% | – |
| CC(COc1ccccc1)N(CCCl)Cc1ccccc1 (stereo not drawn) | – | – | inhibition [17]: Active; inhibition [18]: Active; inhibition [19]: Active; Activity [20]: Active; inhibition [21]: Active |
| COc1cccc(CNCCCCCCNCCSSCCNCCCCCCNCc2cccc(OC)c2OC)c1OC | 26% | 26% | – |
| c1ccc(CNCCCCCCNCCSSCCNCCCCCCNCc2ccccc2)cc1 | 90% | 90% | – |
| COc1ccccc1CNCCCCCCNCCCCCCNCCCCCCNCc1ccccc1OC | – | – | Activity [22]: 50%; Activity [23]: inactive |
